The values below come from patent US8742116B2, “Cycloalkylamine substituted isoquinolone derivatives” (Sanofi, priority 2006, dated 2014).

T1 sequence (O75116 11-552): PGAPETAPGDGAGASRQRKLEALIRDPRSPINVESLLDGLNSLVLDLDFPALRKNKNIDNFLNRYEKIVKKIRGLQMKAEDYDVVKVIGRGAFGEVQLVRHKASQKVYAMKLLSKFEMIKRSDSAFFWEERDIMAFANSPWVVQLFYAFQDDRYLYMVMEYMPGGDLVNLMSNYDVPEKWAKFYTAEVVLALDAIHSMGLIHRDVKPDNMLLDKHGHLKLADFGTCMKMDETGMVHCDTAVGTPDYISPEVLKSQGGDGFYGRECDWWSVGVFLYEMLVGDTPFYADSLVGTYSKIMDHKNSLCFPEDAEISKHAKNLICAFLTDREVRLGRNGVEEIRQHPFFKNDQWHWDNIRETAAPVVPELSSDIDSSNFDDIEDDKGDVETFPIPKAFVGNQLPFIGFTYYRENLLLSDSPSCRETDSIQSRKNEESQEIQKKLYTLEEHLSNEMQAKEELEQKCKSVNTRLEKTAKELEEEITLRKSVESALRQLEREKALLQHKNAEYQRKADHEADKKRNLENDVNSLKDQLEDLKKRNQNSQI

This assay concerns the target T1, Active human recombinant ROCK II (N-terminal His6-tagged recombinant human ROCK-II residues 11-552) (Homo sapiens, UniProt O75116).
T1 construct: recombinant human ROCK-II residues 11-552; His6 (N); purchased Upstate Ltd., Dundee, UK
Kind of assay: Determination of Rho Kinase Inhibition (Caliper peptide phosphorylation assay). It counts as biochemical. The conditions noted are these: Fluorescein-AKRRRLSSLRA-COOH substrate and ATP, 60 min incubation at 32° C., respective form (salt or free base) obtained as in the examples. Here is the method: Determination of Rho Kinase Inhibition
To measure Rho-kinase inhibition, IC50 values were determined according to the following protocol:
Active human recombinant ROCK II (N-terminal His6-tagged recombinant human ROCK-II residues 11-552) was purchased from Upstate Ltd., Dundee, UK. The peptide substrate, Fluorescein-AKRRRLSSLRA-COOH, was obtained from JPT Peptide Technologies, Berlin, Germany. Adenosine-5′-triphosphate (ATP), bovine serum albumine (BSA), dimethylsulphoxide (DMSO), 4-(2-hydroxyethyl)piperazine-1-ethanesulfonic acid (Hepes), Brij-35 and dithiothreitol (DTT) were purchased from Sigma-Aldrich, Munich, Germany. Tris(hydroxymethyl)-aminomethane (Tris), magnesium chloride, NaOH, 1 M HCl and EDTA were obtained from Merck Biosciences, Darmstadt, Germany. “Complete” protease inhibitor was from Roche Diagnostics, Mannheim, Germany.
Test compounds were diluted to the appropriate concentrations in buffer 1 (25 mM Tris-HCl, pH 7.4, 5 mM MgCl2, 2 mM DTT, 0.02% (w/v) BSA and 3% DMSO). The ROCK II enzyme was diluted to a concentration of 100 ng/ml in buffer 2 (25 mM Tris-HCl, pH 7.4, 5 mM MgCl2, 2 mM DTT and 0.02% (w/v) BSA). The peptide substrate and ATP were diluted to concentrations of 3 μM and 120 μM, respectively, in the buffer 2. 2 μl of the compound solution were mixed with 2 μl of the diluted enzyme in a 384-well small volume microtiter plate (Greiner, Bio-One, Frickenhausen, Germany), and the kinase reaction was initiated by addition of 2 μl of the solution containing peptide substrate and ATP. After 60 min incubation at 32° C., the reaction was stopped by addition of 20 μl of a solution containing 100 mM Hepes-NaOH, pH 7.4, 0.015% (v/v) Brij-35, 45 mM EDTA and 0.227% chip coating reagent 1 (Caliper Lifescience Inc, Hopkinton, Mass.). Phosphorylation of the substrate peptide was then detected on a Caliper 3000 instrument essentially as described by Pommereau et al. (J. Biomol. Screening 2004, 9(5), 409-416). Separation conditions were as follows: Pressure—1.3 psi, upstream voltage—1562 V, downstream voltage—500 V, sample sip time 200 ms. Positive controls (buffer 1 instead of compound) and negative controls (buffer 1 instead of compound and buffer 2 instead of ROCK II) were run in parallel on each plate.
The following products/compounds were tested in said assay by using the respective form (salt or free base) obtained as in the examples described above and the following activities were measured.
For orientation: IC50 means the concentration that inhibits the measured activity by half. `Cc1cc2c(=O)[nH]ccc2cc1O[C@@H]1CCC[C@H](N)CC1` (relative stereo) [Compound 47, 6-(cis-4-Amino-cycloheptyloxy)-7-methyl-2H-isoquinolin-1-one]: the IC50 is at most 1000 nM.

Take `O=c1[nH]ccc2cc(OC3CCC(N4CCOCC4)CC3)c(Cl)cc12` (mixture of isomers) [Compound 18, 7-Chloro-6-(4-morpholin-4-yl-cyclohexyloxy)-2H-isoquinolin-1-one]: the IC50 is at most 1000 nM.

With `N[C@@H]1CC[C@H](Oc2ccc3c(=O)[nH]ccc3c2)C1` [Compound 45, 6-((1S,3R)-3-Amino-cyclopentyloxy)-2H-isoquinolin-1-one], the IC50 was at most 1000 nM.

For the compound `O=C(CCC1CCNCC1)N[C@H]1CC[C@@H](Oc2cc3cc[nH]c(=O)c3cc2Cl)CC1` [Compound 30, N-[4-(7-Chloro-1-oxo-1,2-dihydro-isoquinolin-6-yloxy)-cis-cyclohexyl]-3-piperidin-4-yl-propionamide], the IC50 is at most 1000 nM.

Consider `N[C@H]1C[C@H](COc2cc3cc[nH]c(=O)c3cc2Cl)C1` [Compound 56, trans-6-(3-Amino-cyclobutylmethoxy)-7-chloro-2H-isoquinolin-1-one], for which the IC50 was at most 1000 nM.

For the compound `CCC[C@]1(N)CCC[C@H](Oc2cc3cc[nH]c(=O)c3cc2Cl)CCC1` (single isomer, unassigned) [Compound 67, 6-(trans-5-amino-5-propyl-cyclooctyloxy)-7-chloro-2H-isoquinolin-1-one], the IC50 is at most 1000 nM.

With `N[C@H]1CCC[C@@H](Oc2cc3cc[nH]c(=O)c3cc2Cl)CC1` (relative stereo) [Compound 48, 7-Chloro-6-(cis-4-Amino-cycloheptyloxy)-2H-isoquinolin-1-one], the IC50 is at most 1000 nM.

In the case of `O=c1[nH]ccc2cc(O[C@H]3CC[C@H](N4CCCC4)CC3)c(Cl)cc12` [Compound 19, 7-Chloro-6-(4-pyrrolidin-1-yl-cyclohexyloxy)-2H-isoquinolin-1-one], the IC50 is at most 1000 nM.

Regarding `O=c1[nH]ccc2cc(O[C@H]3CC[C@@H](N4CCCC4)CC3)c(Cl)cc12` [Compound 20, 7-Chloro-6-(4-pyrrolidin-1-yl-cyclohexyloxy)-2H-isoquinolin-1-one], the IC50 is at most 1000 nM.

Consider `CCC[C@]1(N)CCC[C@@H](Oc2cc3cc[nH]c(=O)c3cc2Cl)CCC1` (single isomer, unassigned) [Compound 66, 6-(cis-5-Amino-5-propyl-cyclooctyloxy)-7-chloro-2H-isoquinolin-1-one], for which the IC50 was at most 1000 nM.

Consider `NC(=O)C1CCN(C2CCC(Oc3cc4cc[nH]c(=O)c4cc3Cl)CC2)CC1` (mixture of isomers) [Compound 15, 1-[4-(7-Chloro-1-oxo-1,2-dihydro-isoquinolin-6-yloxy)-cyclohexyl]-piperidine-4-carboxylic acid amide], for which the IC50 was at most 1000 nM.

For `O=C(O)CN[C@H]1CC[C@@H](Oc2cc3cc[nH]c(=O)c3cc2Cl)CC1` [Compound 24, [4-(7-Chloro-1-oxo-1,2-dihydro-isoquinolin-6-yloxy)-cis-cyclohexylamino]-acetic acid], the IC50 is at most 1000 nM.

As to `NC1CC(Oc2cc3cc[nH]c(=O)c3cc2Cl)C1` (mixture of isomers) [Compound 54, 6-(3-Amino-cyclobutoxy)-7-chloro-2H-isoquinolin-1-one], the IC50 is at most 1000 nM.

For the compound `Cc1cc2c(=O)[nH]ccc2cc1O[C@H]1CC[C@H](NC(=O)CCC2CCNCC2)CC1` [Compound 28, N-[4-(7-Methyl-1-oxo-1,2-dihydro-isoquinolin-6-yloxy)-trans-cyclohexyl]-3-piperidin-4-yl-propionamide], the IC50 was 1000 to 10000 nM.

Turning to `Cc1cc2c(=O)[nH]ccc2cc1O[C@H]1CC[C@H](NC(=O)CC2CCNCC2)CC1` [Compound 29, N-[4-(7-Methyl-1-oxo-1,2-dihydro-isoquinolin-6-yloxy)-trans-cyclohexyl]-2-piperidin-4-yl-acetamide], the IC50 was 1000 to 10000 nM.

On to `O=C(CC1CCNCC1)N[C@H]1CC[C@@H](Oc2cc3cc[nH]c(=O)c3cc2Cl)CC1` [Compound 31, N-[4-(7-Chloro-1-oxo-1,2-dihydro-isoquinolin-6-yloxy)-cis-cyclohexyl]-2-piperidin-4-yl-acetamide], for which the IC50 is at most 1000 nM.

Take `CN1CCN([C@H]2CC[C@@H](Oc3cc4cc[nH]c(=O)c4cc3Cl)CC2)CC1` [Compound 22, 7-Chloro-6-[4-(4-methyl-piperazin-1-yl)-cyclohexyloxy]-2H-isoquinolin-1-one]: the IC50 was at most 1000 nM.

Regarding `N[C@H]1CC[C@H](Oc2cc3cc[nH]c(=O)c3cc2Cl)C1` [Compound 44, 6-((1S,3S)-3-Amino-cyclopentyloxy)-7-chloro-2H-isoquinolin-1-one], the IC50 is at most 1000 nM.

On to `O=c1[nH]ccc2cc(OC3CCC(N4CCCCC4)CC3)c(Cl)cc12` (mixture of isomers) [Compound 16, 7-Chloro-6-(4-piperidin-1-yl-cyclohexyloxy)-2H-isoquinolin-1-one], for which the IC50 is at most 1000 nM.

As to `CN1CCN([C@H]2CC[C@H](Oc3cc4cc[nH]c(=O)c4cc3Cl)CC2)CC1` [Compound 21, 7-Chloro-6-[4-(4-methyl-piperazin-1-yl)-cyclohexyloxy]-2H-isoquinolin-1-one], the IC50 was at most 1000 nM.

For `O=c1[nH]ccc2cc(O[C@H]3CC[C@H](N4CCOCC4)CC3)c(Cl)cc12` [Compound 17, 7-Chloro-6-(4-morpholin-4-yl-cyclohexyloxy)-2H-isoquinolin-1-one], the IC50 is at most 1000 nM.
